Data as given in US9458140B2, “Furanone compounds as kinase inhibitors” (Eternity Bioscience Inc., priority 2013, dated 2016).

Each molecule was assayed against BRAF^V600E (Homo sapiens (Human), UniProt P15056, V600E) (assay: BRAF^V600E enzymatic activity assay (LanthaScreen kinase assay)). Conditions: LanthaScreen TR-FRET, ATP 2 μM, 60 minutes, room temperature; read-out: BRAF^V600E Lantha IC50.
Type: biochemical
Method: BRAF^V600E enzymatic activity assay: The BRAF^V600E enzymatic assay was performed using a LanthaScreen kinase assay kit purchased from Life Technologies (Grand Island, N.Y.). The assay was conducted according to the procedure provided in the assay kit. […] The final reaction volume for each reaction was 10 μl. The reaction was stopped by addition of 10 μl of TR-FRET dilution buffer kinase supplemented with kinase quench buffer (10 mM final) and Tb-anti-pMAP2K1 (2 nM final). […] IC50 value was calculated using appropriate programs in GraphPad Prism by plotting the logarithm of the concentration versus percent inhibition.

BRAF^V600E, sequence (P15056 whole entry V600E): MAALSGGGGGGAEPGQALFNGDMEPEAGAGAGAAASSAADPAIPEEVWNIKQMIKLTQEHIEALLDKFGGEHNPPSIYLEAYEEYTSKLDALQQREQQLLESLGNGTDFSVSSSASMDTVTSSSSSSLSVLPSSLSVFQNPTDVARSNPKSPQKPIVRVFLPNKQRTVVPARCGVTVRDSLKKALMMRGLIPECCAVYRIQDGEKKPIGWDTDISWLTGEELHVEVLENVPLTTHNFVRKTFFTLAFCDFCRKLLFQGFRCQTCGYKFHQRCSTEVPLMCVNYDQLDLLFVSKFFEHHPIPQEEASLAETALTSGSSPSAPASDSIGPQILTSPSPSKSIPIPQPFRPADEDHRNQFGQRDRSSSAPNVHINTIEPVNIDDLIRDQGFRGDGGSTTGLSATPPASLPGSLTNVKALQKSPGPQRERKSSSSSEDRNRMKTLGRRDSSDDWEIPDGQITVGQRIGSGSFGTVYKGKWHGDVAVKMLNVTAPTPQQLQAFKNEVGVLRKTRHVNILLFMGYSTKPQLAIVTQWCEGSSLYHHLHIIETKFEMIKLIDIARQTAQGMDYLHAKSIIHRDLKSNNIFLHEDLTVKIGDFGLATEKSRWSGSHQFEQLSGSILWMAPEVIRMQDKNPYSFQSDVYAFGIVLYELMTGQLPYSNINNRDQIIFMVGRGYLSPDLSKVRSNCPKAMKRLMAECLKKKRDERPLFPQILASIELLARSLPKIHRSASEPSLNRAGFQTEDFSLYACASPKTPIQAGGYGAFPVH

| Structure (SMILES) | IC50 [nM] |
| --- | --- |
| CC(C)CC1(C)OC(c2ccnc(NCC3CCCO3)n2)=C(c2cccc(NS(=O)(=O)c3c(F)cccc3F)c2F)C1=O (stereo not drawn) [Example 10] | 750 |
| COCCNc1nccc(C2=C(c3cc(Cl)cc(NS(=O)(=O)c4cc(F)ccc4F)c3F)C(=O)C(C)(C)O2)n1 [Example 26] | 50 |
| COC(=O)N[C@@H](C)CNc1nccc(C2=C(c3cccc(NS(=O)(=O)c4c(F)cccc4F)c3F)C(=O)C(C)(C)O2)n1 [Example 2] | 97 |
| Nc1nccc(C2=C(c3cc(Cl)cc(NS(=O)(=O)c4c(F)cccc4F)c3F)C(=O)C3(CCCC3)O2)n1 [Example 29] | 1.3 |
| CC1(C)OC(c2ccnc(NCCC#N)n2)=C(c2cccc(NS(=O)(=O)c3c(F)cccc3F)c2F)C1=O [Example 3] | 13 |
| CC1(C)OC(c2ccnc(NCCC#N)n2)=C(c2cc(Cl)cc(NS(=O)(=O)c3cc(F)ccc3F)c2F)C1=O [Example 23] | 13 |
| CC(C)CC1(C)OC(c2ccnc(N)n2)=C(c2cccc(NS(=O)(=O)c3c(F)cccc3F)c2F)C1=O (stereo not drawn) [Example 5] | 92 |
| CC1(C)OC(c2ccnc(N)n2)=C(c2cc(Cl)cc(NS(=O)(=O)c3cccc(F)c3)c2F)C1=O [Example 14] | 1.2 |
| CC(C)CC1(C)OC(c2ccnc(NCCC#N)n2)=C(c2cccc(NS(=O)(=O)c3c(F)cccc3F)c2F)C1=O (stereo not drawn) [Example 6] | 9.6 |
| Nc1nccc(C2=C(c3cc(Cl)cc(NS(=O)(=O)c4c(F)cccc4F)c3Cl)C(=O)C3(CCCC3)O2)n1 [Example 18] | 2.4 |
| CC(C)CC1(C)OC(c2ccnc(NCc3nccs3)n2)=C(c2cccc(NS(=O)(=O)c3c(F)cccc3F)c2F)C1=O (stereo not drawn) [Example 8] | 260 |
| Nc1nccc(C2=C(c3cccc(NS(=O)(=O)c4c(F)cccc4F)c3Cl)C(=O)C3(CCCC3)O2)n1 [Example 17] | 3.7 |
| CC(C)CC1(C)OC(c2ccnc(NC[C@@H]3CCCN3)n2)=C(c2cccc(NS(=O)(=O)c3c(F)cccc3F)c2F)C1=O (stereo partly drawn) [Example 9] | 2000 |
| CC1(C)OC(c2ccnc(N)n2)=C(c2cc(Cl)cc(NS(=O)(=O)c3ccccc3F)c2F)C1=O [Example 15] | 2.5 |
| CC1(C)OC(c2ccnc(NCCO)n2)=C(c2cc(Cl)cc(NS(=O)(=O)c3cc(F)ccc3F)c2F)C1=O [Example 25] | 11 |
| Nc1nccc(C2=C(c3cc(Cl)cc(NS(=O)(=O)c4cc(F)ccc4F)c3F)C(=O)C3(CCCC3)O2)n1 [Example 28] | 2.6 |
| CC1(C)OC(c2ccnc(NCCC#N)n2)=C(c2cc(Cl)cc(NS(=O)(=O)c3c(F)cccc3F)c2F)C1=O [Example 21] | 2.5 |
| CC(C)CC1(C)OC(c2ccnc(N)n2)=C(c2cc(Cl)cc(NS(=O)(=O)c3c(F)cccc3F)c2F)C1=O (stereo not drawn) [Example 19] | 27 |
| CC1(C)OC(c2ccnc(N)n2)=C(c2cc(Cl)cc(NS(=O)(=O)c3cc(F)ccc3F)c2F)C1=O [Example 12] | 0.6 |
| COC(=O)N[C@@H](C)CNc1nccc(C2=C(c3cccc(NS(=O)(=O)c4c(F)cccc4F)c3F)C(=O)C(C)(CC(C)C)O2)n1 (stereo partly drawn) [Example 7] | 27 |
| C[C@H](O)CNc1nccc(C2=C(c3cc(Cl)cc(NS(=O)(=O)c4cc(F)ccc4F)c3F)C(=O)C(C)(C)O2)n1 [Example 24] | 24 |
| COC(=O)N[C@@H](C)CNc1nccc(C2=C(c3cc(Cl)cc(NS(=O)(=O)c4cc(F)ccc4F)c3F)C(=O)C(C)(C)O2)n1 [Example 22] | 50 |
| CC(C)CC1(C)OC(c2ccnc(NCCC#N)n2)=C(c2cc(Cl)cc(NS(=O)(=O)c3c(F)cccc3F)c2F)C1=O (stereo not drawn) [Example 20] | 29 |
| CCNc1nccc(C2=C(c3cc(Cl)cc(NS(=O)(=O)c4cc(F)ccc4F)c3F)C(=O)C(C)(C)O2)n1 [Example 27] | 2.8 |
| CCCS(=O)(=O)Nc1cc(Cl)cc(C2=C(c3ccnc(N)n3)OC(C)(CC(C)C)C2=O)c1F (stereo not drawn) [Example 16] | 70 |

What follows are molecules tested on A375 cells (assay: Cell proliferation assay (CellTiter-Glo), A375 cell growth). Conditions: 3-day treatment.
Type: cell-based
Method: Cell proliferation assay: A375, Colo-205, Calu-6, and SW-480 cells were purchased from American Type Culture Collection (USA). All cells were cultured in the recommended medium and serum concentration. Cells were maintained at 37° C. in a humidified atmosphere with 5% CO2. For cell proliferation assay, cells were seeded in 96-well pates at a density of 1,000 to 5,000 cells per well and cultured overnight at 37° C. in a medium supplemented with 5-10% FBS. On the next day, the test articles at various concentrations or vehicle control (1% DMSO) were added into cell culture. After 3-day treatment, the growth of cells was assayed by the CellTiter-Glo® Luminestceaent Cell Viability Assay (Promega). IC50 value was calculated using GraphPad Prism by plotting the logarithm of the concentration versus percent inhibition of cell growth.

| Structure (SMILES) | IC50 [nM] |
| --- | --- |
| Nc1nccc(C2=C(c3cc(Cl)cc(NS(=O)(=O)c4c(F)cccc4F)c3F)C(=O)C3(CCCC3)O2)n1 [Example 29] | 18 |
| Nc1nccc(C2=C(c3cc(Cl)cc(NS(=O)(=O)c4cc(F)ccc4F)c3F)C(=O)C3(CCCC3)O2)n1 [Example 28] | 11 |

Same assay, conditions: Homo sapiens, A-375, 72 h, 3-day treatment

| Structure (SMILES) | IC50 [nM] |
| --- | --- |
| COCCNc1nccc(C2=C(c3cc(Cl)cc(NS(=O)(=O)c4cc(F)ccc4F)c3F)C(=O)C(C)(C)O2)n1 [Example 26] | 260 |
| COC(=O)N[C@@H](C)CNc1nccc(C2=C(c3cccc(NS(=O)(=O)c4c(F)cccc4F)c3F)C(=O)C(C)(C)O2)n1 [Example 2] | 630 |
| CC1(C)OC(c2ccnc(NCCC#N)n2)=C(c2cccc(NS(=O)(=O)c3c(F)cccc3F)c2F)C1=O [Example 3] | 470 |
| CC1(C)OC(c2ccnc(NCCC#N)n2)=C(c2cc(Cl)cc(NS(=O)(=O)c3cc(F)ccc3F)c2F)C1=O [Example 23] | 51 |
| CC1(C)OC(c2ccnc(N)n2)=C(c2cc(Cl)cc(NS(=O)(=O)c3c(F)cccc3F)c2F)C1=O [Example 11] | 18 |
| CC(C)CC1(C)OC(c2ccnc(N)n2)=C(c2cccc(NS(=O)(=O)c3c(F)cccc3F)c2F)C1=O (stereo not drawn) [Example 5] | 2300 |
| CC1(C)OC(c2ccnc(N)n2)=C(c2cc(Cl)cc(NS(=O)(=O)c3cccc(F)c3)c2F)C1=O [Example 14] | 120 |
| CC(C)CC1(C)OC(c2ccnc(NCCC#N)n2)=C(c2cccc(NS(=O)(=O)c3c(F)cccc3F)c2F)C1=O (stereo not drawn) [Example 6] | 12000 |
| Nc1nccc(C2=C(c3cc(Cl)cc(NS(=O)(=O)c4c(F)cccc4F)c3Cl)C(=O)C3(CCCC3)O2)n1 [Example 18] | 7 |
| CC(C)CC1(C)OC(c2ccnc(NCc3nccs3)n2)=C(c2cccc(NS(=O)(=O)c3c(F)cccc3F)c2F)C1=O (stereo not drawn) [Example 8] | 27000 |
| Nc1nccc(C2=C(c3cccc(NS(=O)(=O)c4c(F)cccc4F)c3Cl)C(=O)C3(CCCC3)O2)n1 [Example 17] | 150 |
| CC1(C)OC(c2ccnc(N)n2)=C(c2cc(Cl)cc(NS(=O)(=O)c3ccccc3F)c2F)C1=O [Example 15] | 110 |
| CC1(C)OC(c2ccnc(NCCO)n2)=C(c2cc(Cl)cc(NS(=O)(=O)c3cc(F)ccc3F)c2F)C1=O [Example 25] | 160 |
| CC1(C)OC(c2ccnc(NCCC#N)n2)=C(c2cc(Cl)cc(NS(=O)(=O)c3c(F)cccc3F)c2F)C1=O [Example 21] | 200 |
| Nc1nccc(C2=C(c3cccc(NS(=O)(=O)c4c(F)cccc4F)c3F)C(=O)C3(CCCC3)O2)n1 [Example 4] | 510 |
| CC(C)CC1(C)OC(c2ccnc(N)n2)=C(c2cc(Cl)cc(NS(=O)(=O)c3c(F)cccc3F)c2F)C1=O (stereo not drawn) [Example 19] | 41 |
| CC1(C)OC(c2ccnc(N)n2)=C(c2cc(Cl)cc(NS(=O)(=O)c3cc(F)ccc3F)c2F)C1=O [Example 12] | 1.4 |
| COC(=O)N[C@@H](C)CNc1nccc(C2=C(c3cccc(NS(=O)(=O)c4c(F)cccc4F)c3F)C(=O)C(C)(CC(C)C)O2)n1 (stereo partly drawn) [Example 7] | 870 |
| C[C@H](O)CNc1nccc(C2=C(c3cc(Cl)cc(NS(=O)(=O)c4cc(F)ccc4F)c3F)C(=O)C(C)(C)O2)n1 [Example 24] | 410 |
| CC1(C)OC(c2ccnc(N)n2)=C(c2cc(Cl)cc(NS(=O)(=O)c3ccc(F)cc3F)c2F)C1=O [Example 13] | 350 |
| COC(=O)N[C@@H](C)CNc1nccc(C2=C(c3cc(Cl)cc(NS(=O)(=O)c4cc(F)ccc4F)c3F)C(=O)C(C)(C)O2)n1 [Example 22] | 180 |
| CC(C)CC1(C)OC(c2ccnc(NCCC#N)n2)=C(c2cc(Cl)cc(NS(=O)(=O)c3c(F)cccc3F)c2F)C1=O (stereo not drawn) [Example 20] | 160 |
| CCNc1nccc(C2=C(c3cc(Cl)cc(NS(=O)(=O)c4cc(F)ccc4F)c3F)C(=O)C(C)(C)O2)n1 [Example 27] | 320 |
| CCCS(=O)(=O)Nc1cc(Cl)cc(C2=C(c3ccnc(N)n3)OC(C)(CC(C)C)C2=O)c1F (stereo not drawn) [Example 16] | 250 |
